Here are results for one compound from patent publication US20240262727A1, “METHOD FOR IMPROVING BIOLOGICAL NITROGEN REMOVAL EFFECT OF LOW-TEMPERATURE SEWAGE” (Sichuan University, priority 2023, published 2024).

In the assay the test system is activated sludge-biofilm composite system. The assay is described as follows: Activated sludge-biofilm composite MBBR reactor at 6° C., pollutant removal efficiency. The procedure: (2) The hydraulic retention time was 20 h, and an effluent from the reactor was collected to detect the pollutant removal efficiency. After a short period of adaptation, the COD concentration in the reactor effluent dropped below 50 mg/L, and the removal efficiency was always maintained at 85%. After adding the C4-HSL, the nitrogen removal effect gradually became more prominent. On the 16th day, the effluent ammonia-nitrogen concentration dropped below 8 mg/L (a maximum allowable emission concentration of ammonia-nitrogen from most urban sewage treatment plants at a water temperature of below 12° C.) to 6.77 mg/L, and the removal efficiency was 71.86%. On the 51st day, the ammonia-nitrogen concentration in the effluent dropped to almost 0, and the removal efficiency was greater than 99%.
There were three stages: increasing COD from 160 mg/L to 500 mg/L (260, 400, 500 mg/L); increasing ammonia-nitrogen concentration from 25 mg/L to 75 mg/L (40, 65, 75 mg/L); increasing TP from 2 mg/L to 8.5 mg/L (4, 6, 8.5 mg/L).
The C4-HSL with a concentration of 100 μg/L was added to the influent. The rest steps were the same as those in Example 5.

Consider `CCCC(=O)N[C@H]1CCOC1=O` [C4-HSL, N-butanoyl-L-homoserine lactone], for which the ammonia-nitrogen removal efficiency by setting is: (40 μg/L, 6° C., 16th day) 71.86%; (40 μg/L, 6° C., 51st day) “greater than 99%”. This compound also displayed an effluent ammonia-nitrogen concentration (40 μg/L, 6° C., 16th day, influent 25 mg/L) of 6.77 mg/L. Moreover, the “ammonia-nitrogen concentration in the effluent” value (40 μg/L, 6° C., 51st day) is listed as approximately 0. Also, the COD removal efficiency runs as follows: (40 μg/L, 6° C., HRT 20 h) 85%; (40 μg/L, third stage influent, 234th day) 95%. The “COD concentration in the reactor effluent” value (40 μg/L, 6° C., HRT 20 h, influent COD 160 mg/L (Example 5)) is listed as “below 50 mg/L”. In addition, the “effluent COD concentration” value (40 μg/L, 6° C., third stage influent COD 500, ammonia-nitrogen 75, TP 8.5 mg/L, 234th day) is reported as “below 50 mg/L”. Besides, the TN removal efficiency entry (40 μg/L, third stage influent) is recorded as “not less than 80%”. Also, the “effluent total nitrogen (TN) concentration” value (40 μg/L, third stage influent) amounted to 12 mg/L. Also, the “effluent ammonia-nitrogen removal efficiency” value (100 μg/L, after raising influent in three stages (COD 500, ammonia-nitrogen 75, TP 8.5 mg/L)) is “not less than 99%”.
